Test results: ChEMBL document CHEMBL4145553, “Design, synthesis, and biological evaluation of novel amide and hydrazide based thioether analogs targeting Histone deacteylase (HDAC) enzymes” (Eur J Med Chem, 2018)
pIC50: −log10 of the molar value. The source made the active and inactive calls. The calls are words filed in the database; no cut-off is given here.

What was measured:
HCT-15 = assay: Growth inhibition of human HCT15 cells incubated for 48 hrs by sulforhodamine B assay; assay type: functional; conditions: HCT-15, 48 h
OVCAR-5 = assay: Growth inhibition of human OVCAR5 cells assessed as cell growth at 10^-5 M incubated for 48 hrs by sulforhodamine B assay relative to control; assay type: functional; conditions: OVCAR-5, 48 h, read-out: Activity
UO-31 = assay: Growth inhibition of human UO31 cells assessed as cell growth at 10^-5 M incubated for 48 hrs by sulforhodamine B assay relative to control; assay type: functional; conditions: UO-31, 48 h, read-out: Activity
EKVX = assay: Growth inhibition of human EKVX cells incubated for 48 hrs by sulforhodamine B assay; assay type: functional
BT-549 = assay: Growth inhibition of human BT549 cells assessed as cell growth at 10^-7 M incubated for 48 hrs by sulforhodamine B assay relative to control; assay type: functional; conditions: BT-549, 48 h, read-out: Activity
HL-60(TB) = assay: Growth inhibition of human HL-60(TB) cells assessed as cell growth at 10^-6 M incubated for 48 hrs by sulforhodamine B assay relative to control; assay type: functional; conditions: HL-60, 48 h, read-out: Activity
HL-60 [1] = assay: Cell cycle arrest in human HL60 cells assessed as accumulation at S-phase by propidium iodide staining based flow cytometry (reference value: 24.9%); assay type: functional
COLO 205 = assay: Growth inhibition of human COLO205 cells assessed as cell growth at 10^-4 M incubated for 48 hrs by sulforhodamine B assay relative to control; assay type: functional; conditions: COLO 205, 48 h, read-out: Activity
HL-60 [2] = assay: Induction of apoptosis in human HL60 cells assessed as increase in gammaH2ax expression by qRT-PCR method; assay type: functional, cell-based
A549 = assay: Growth inhibition of human A549/ATCC cells assessed as cell growth at 10^-4 M incubated for 48 hrs by sulforhodamine B assay relative to control; assay type: functional; conditions: A549, 48 h, read-out: Activity
HCT-116 = assay: Growth inhibition of human HCT116 cells assessed as cell growth at 10^-5 M incubated for 48 hrs by sulforhodamine B assay relative to control; assay type: functional; conditions: HCT-116, 48 h, read-out: Activity
HL-60 [3] = assay: Cell cycle arrest in human HL60 cells assessed as accumulation at G2-phase by propidium iodide staining based flow cytometry (reference value: 6.58%); assay type: functional
SNB-75 [4] = assay: Growth inhibition of human SNB75 cells assessed as cell growth at 10^-5 M incubated for 48 hrs by sulforhodamine B assay relative to control; assay type: functional; conditions: SNB-75, 48 h, read-out: Activity
Histone deacetylase 8 = Histone deacetylase 8 (Homo sapiens, UniProt Q9BY41); assay: Inhibition of HDAC8 (unknown origin) by ELISA
CAKI-1 = assay: Growth inhibition of human Caki1 cells assessed as cell growth at 10^-6 M incubated for 48 hrs by sulforhodamine B assay relative to control; assay type: functional; conditions: CAKI-1, 48 h, read-out: Activity
MOLT-4 = assay: Growth inhibition of human MOLT4 cells assessed as cell growth at 10^-6 M incubated for 48 hrs by sulforhodamine B assay relative to control; assay type: functional; conditions: MOLT-4, 48 h, read-out: Activity
SNB-75 [5] = assay: Growth inhibition of human SNB75 cells incubated for 48 hrs by sulforhodamine B assay; assay type: functional; conditions: SNB-75, 48 h
TK-10 [6] = assay: Growth inhibition of human TK10 cells assessed as cell growth at 10^-6 M incubated for 48 hrs by sulforhodamine B assay relative to control; assay type: functional; conditions: TK-10, 48 h, read-out: Activity
MDA-MB-468 [7] = assay: Growth inhibition of human MDA-MB-468 cells incubated for 48 hrs by sulforhodamine B assay; assay type: functional; conditions: MDA-MB-468, 48 h
Malme-3M [8] = assay: Growth inhibition of human MALME-3M cells assessed as cell growth at 10^-6 M incubated for 48 hrs by sulforhodamine B assay relative to control; assay type: functional; conditions: read-out: Activity
Malme-3M [9] = assay: Growth inhibition of human MALME-3M cells incubated for 48 hrs by sulforhodamine B assay; assay type: functional
NCI-H522 = assay: Growth inhibition of human NCI-H522 cells assessed as cell growth at 10^-7 M incubated for 48 hrs by sulforhodamine B assay relative to control; assay type: functional; conditions: NCI-H522, 48 h, read-out: Activity
NCI-H226 [10] = assay: Growth inhibition of human NCI-H226 cells assessed as cell growth at 10^-5 M incubated for 48 hrs by sulforhodamine B assay relative to control; assay type: functional; conditions: NCI-H226, 48 h, read-out: Activity
NCI-H460 = assay: Growth inhibition of human NCI-H460 cells incubated for 48 hrs by sulforhodamine B assay; assay type: functional; conditions: NCI-H460, 48 h
NCI-H226 [11] = assay: Growth inhibition of human NCI-H226 cells assessed as cell growth at 10^-7 M incubated for 48 hrs by sulforhodamine B assay relative to control; assay type: functional; conditions: NCI-H226, 48 h, read-out: Activity
MDA-MB-468 [12] = assay: Growth inhibition of human MDA-MB-468 cells assessed as cell growth at 10^-8 M incubated for 48 hrs by sulforhodamine B assay relative to control; assay type: functional; conditions: MDA-MB-468, 48 h, read-out: Activity
786-0 = assay: Growth inhibition of human 786-0 cells incubated for 48 hrs by sulforhodamine B assay; assay type: functional; conditions: 786-0, 48 h
TK-10 [13] = assay: Growth inhibition of human TK10 cells assessed as cell growth at 10^-8 M incubated for 48 hrs by sulforhodamine B assay relative to control; assay type: functional; conditions: TK-10, 48 h, read-out: Activity
MDA-MB-231 = assay: Growth inhibition of human MDA-MB-231 cells assessed as cell growth at 10^-7 M incubated for 48 hrs by sulforhodamine B assay relative to control; assay type: functional; conditions: MDA-MB-231, 48 h, read-out: Activity
[14] = read-out: LC50 (the source's name)
[15] = read-out: pLC50 (the source's name) (converted)

Histone deacetylase 8, sequence (Q9BY41 whole entry): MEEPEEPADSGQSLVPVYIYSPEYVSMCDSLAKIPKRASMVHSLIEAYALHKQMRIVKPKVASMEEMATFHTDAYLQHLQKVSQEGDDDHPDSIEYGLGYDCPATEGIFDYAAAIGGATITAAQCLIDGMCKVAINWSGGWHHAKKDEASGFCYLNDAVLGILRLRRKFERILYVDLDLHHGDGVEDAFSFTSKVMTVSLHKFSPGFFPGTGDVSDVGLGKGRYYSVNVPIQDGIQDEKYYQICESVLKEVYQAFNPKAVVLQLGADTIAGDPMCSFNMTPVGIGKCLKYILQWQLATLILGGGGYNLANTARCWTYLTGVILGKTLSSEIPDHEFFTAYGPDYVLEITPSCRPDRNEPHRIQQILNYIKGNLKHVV

CCS/C(Nc1ccccc1)=C(\C#N)C(=O)Nc1ccc(OC)cc1
GI50 (HCT-15; read-out: GI50): 1.19 µM
CC50 (HCT-15; [14]): > 100 µM
TGI (HCT-15; read-out: TGI): > 100 µM
GI50 (HCT-15; read-out: pGI50 (converted)): 1.2 µM
CC50 (HCT-15; [15]): > 100 µM
TGI (HCT-15; read-out: pTGI): > 100 µM
growth at 10 µM (OVCAR-5): 33%
growth at 10 µM (UO-31): 37%
GI50 (EKVX; read-out: GI50): 4.42 µM
CC50 (EKVX; [14]): > 100 µM
TGI (EKVX; read-out: TGI): > 100 µM
GI50 (EKVX; read-out: pGI50 (converted)): 4.47 µM
CC50 (EKVX; [15]): > 100 µM
TGI (EKVX; read-out: pTGI): > 100 µM
growth at 0.1 µM (BT-549): 89%
growth at 1 µM (HL-60(TB)): 86%
Activity (HL-60 [1]): 15.51%
growth at 100 µM (COLO 205): -17%
Activity (HL-60 [2]): Active
growth at 100 µM (A549): 15%
growth at 10 µM (HCT-116): 3%
Activity (HL-60 [3]): 16.32%
growth at 10 µM (SNB-75 [4]): -13%
pIC50 (Histone deacetylase 8): 6.53
growth at 1 µM (CAKI-1): 73%
growth at 1 µM (MOLT-4): 71%
GI50 (SNB-75 [5]; read-out: GI50): 2.13 µM
CC50 (SNB-75 [5]; [14]): > 100 µM
TGI (SNB-75 [5]; read-out: TGI): 7.21 µM
GI50 (SNB-75 [5]; read-out: pGI50 (converted)): 2.14 µM
CC50 (SNB-75 [5]; [15]): > 100 µM
TGI (SNB-75 [5]; read-out: pTGI (converted)): 7.24 µM
growth at 1 µM (TK-10 [6]): 97%
GI50 (MDA-MB-468 [7]; read-out: GI50): 1.39 µM
CC50 (MDA-MB-468 [7]; [14]): > 100 µM
TGI (MDA-MB-468 [7]; read-out: TGI): 7.51 µM
GI50 (MDA-MB-468 [7]; read-out: pGI50 (converted)): 1.38 µM
CC50 (MDA-MB-468 [7]; [15]): > 100 µM
TGI (MDA-MB-468 [7]; read-out: pTGI (converted)): 7.59 µM
growth at 1 µM (Malme-3M [8]): 79%
GI50 (Malme-3M [9]; read-out: GI50): 47.3 µM
CC50 (Malme-3M [9]; [14]): > 100 µM
TGI (Malme-3M [9]; read-out: TGI): > 100 µM
GI50 (Malme-3M [9]; read-out: pGI50 (converted)): 46.8 µM
CC50 (Malme-3M [9]; [15]): > 100 µM
TGI (Malme-3M [9]; read-out: pTGI): > 100 µM
growth at 0.1 µM (NCI-H522): 94%
growth at 10 µM (NCI-H226 [10]): 37%
GI50 (NCI-H460; read-out: GI50): 3.14 µM
LC50 (NCI-H460; read-out: LC50): > 100 µM
TGI (NCI-H460; read-out: TGI): 34.2 µM
GI50 (NCI-H460; read-out: pGI50 (converted)): 3.16 µM
LC50 (NCI-H460; read-out: pLC50 (converted)): > 100 µM
TGI (NCI-H460; read-out: pTGI (converted)): 33.9 µM
growth at 0.1 µM (NCI-H226 [11]): 86%
growth at 0.01 µM (MDA-MB-468 [12]): 105%
GI50 (786-0; read-out: GI50): 4.14 µM
CC50 (786-0; [14]): > 100 µM
TGI (786-0; read-out: TGI): > 100 µM
GI50 (786-0; read-out: pGI50 (converted)): 4.17 µM
CC50 (786-0; [15]): > 100 µM
TGI (786-0; read-out: pTGI): > 100 µM
growth at 0.01 µM (TK-10 [13]): 104%
growth at 0.1 µM (MDA-MB-231): 94%
